In patent publication US8058243B2, “Method for treating a brain cancer with ifenprodil” (HSC Research and Development Limited Partnership, priority 2006, dated 2011):
Where a name gives a salt, the structure may show the parent alone. Read-outs that look alike come from different tables or passages of the source.

System: murine neural precursor cells (neurosphere cultures)
Test: HTS of LOPAC library against secondary neurosphere cultures, MTT proliferation assay at 3 μM, day 7 (z score, P value)
Type: cell-based, mouse
[1] = LOPAC library screen, 3 μM, MTT, neurosphere cultures
[2] = primary LOPAC screen, 3 μM, MTT, neurosphere proliferation
[3] = yes/no: significantly inhibited neurosphere proliferation in the primary screen
[4] = yes/no: significantly inhibited neurosphere proliferation (P<0.01) in the primary screen
[5] = LOPAC library screen at 3 μM, secondary neurosphere cultures, MTT
[6] = LOPAC primary screen, neurosphere MTT proliferation, 3 μM, day 7
[7] = yes = significantly inhibited neurosphere proliferation (P<0.01) in the primary screen
[8] = LOPAC library screen, 3 μM, MTT, secondary neurosphere cultures, day 7
[9] = yes/no: significantly inhibited neurosphere proliferation in primary screen
[10] = LOPAC screen, neurosphere MTT proliferation, 3 μM, day 7
[11] = yes/no: significantly inhibited neurosphere proliferation (P<0.01) in primary screen

SMILES: CCCCc1oc2ccccc2c1C(=O)c1cc(I)c(OCCN(CC)CC)c(I)c1 [Amiodarone hydrochloride]
- Z Score [1]: 0.9292
- Z score [2]: 0.929
- Activity [3]: no

SMILES: CN(C)CCCO[C@@H]1[C@H]2OC(C)(C)O[C@H]2O[C@@H]1[C@H](O)CO [Amiprilose hydrochloride]
- Z Score (168 h, 3 µM): −0.7783
- Z score (168 h, 3 µM): −0.778
- Activity [3]: no

SMILES: CN(C)CCC=C1c2ccccc2CCc2ccccc21 [Amitriptyline hydrochloride]
- Z Score (168 h, 3 µM): 0.7066
- Z score (168 h, 3 µM): 0.707
- Activity [4]: no

SMILES: N.S=C(S)N1CCCC1 [Ammonium pyrrolidinedithiocarbamate]
- Activity: no
- Z Score [5]: −0.4168
- Z score [6]: −0.417

SMILES: Clc1ccc2c(c1)C(N1CCNCC1)=Nc1ccccc1O2 [Amoxapine]
- Z Score (168 h, 3 µM): −1.041
- Z score (168 h, 3 µM): −1.041
- Activity [3]: no

SMILES: CCNC(=O)N1CCN(CCCC(c2ccc(F)cc2)c2ccc(F)cc2)CC1 [Amperozide hydrochloride]
- Z Score (168 h, 3 µM): −0.4126
- Z score (168 h, 3 µM): −0.413
- Activity [7]: no

SMILES: COc1cc(NS(C)(=O)=O)ccc1Nc1c2ccccc2nc2ccccc12 [Amsacrine hydrochloride]
- Z Score [8]: −11.27
- Z score [6]: −11.274
- Activity [7]: yes

SMILES: N=c1ccn2c(n1)O[C@H]1[C@H](O)[C@@H](CO)O[C@H]12 [Ancitabine hydrochloride]
- Z Score [8]: −9.951
- Z score [6]: −9.951
- Activity [7]: yes

SMILES: C[C@]12CC[C@@H](O)C[C@@H]1CC[C@@H]1[C@@H]2CC[C@]2(C)C(=O)CC[C@@H]12 [Androsterone]
- Activity: no
- Z Score: 1.947
- Z score: 1.947

SMILES: COc1ccc(C(=O)N2CCCC2=O)cc1 [Aniracetam]
- Z Score [8]: −1.355
- Z score [2]: −1.355
- Activity [3]: no

SMILES: Cl.c1ccc(CN(CC2=NCCN2)c2ccccc2)cc1 [Antozoline hydrochloride]
- Z Score: 0.4854
- Z score [2]: 0.485
- Activity [3]: no

SMILES: O=c1cc(-c2ccc(O)cc2)oc2cc(O)cc(O)c12 [Apigenin]
- Z Score (168 h, 3 µM): 1.824
- Z score (168 h, 3 µM): 1.824
- Activity [3]: no

SMILES: NC(N)=NCCCCN=C(N)N [Arcaine sulfate]
- Z Score [5]: −0.3299
- Z score [6]: −0.330
- Activity [9]: no

SMILES: C#CCOC(=O)C1=CCCN(C)C1 [Arecaidine propargyl ester hydrobromide]
- Z Score: −9.931
- Z score [6]: −9.931
- Activity [4]: yes

SMILES: COC(=O)C1=CCCN(C)C1 [Arecoline hydrobromide]
- Activity: no
- Z Score: −0.111
- Z score: −0.111

SMILES: CC1=C(/C=C/C(C)=C/C=C/C(C)=C/C=C/C=C(C)/C=C/C=C(C)/C=C/C2=C(C)C(=O)[C@@H](O)CC2(C)C)C(C)(C)C[C@H](O)C1=O [Astaxanthin]
- Z Score (168 h, 3 µM): 1.571
- Z score (168 h, 3 µM): 1.571
- Activity [4]: no

SMILES: C[N+]1(C)[C@@H]2CC[C@H]1C[C@@H](OC(=O)C(CO)c1ccccc1)C2 (stereo partly shown) [Atropine methyl bromide]
- Z Score [5]: −0.8716
- Z score [6]: −0.872
- Activity [7]: no

SMILES: C[N+]1(C)[C@@H]2CC[C@H]1C[C@@H](OC(=O)C(CO)c1ccccc1)C2 (stereo partly shown) [Atropine methyl nitrate]
- Z Score [1]: 1.292
- Z score [6]: 1.292
- Activity [9]: no

SMILES: CN1[C@@H]2CC[C@H]1C[C@@H](OC(=O)C(CO)c1ccccc1)C2 (stereo partly shown) [Atropine sulfate]
- Activity: no
- Z Score: 1.244
- Z score: 1.244

SMILES: O=C(O)C1=CC(=C(c2ccc(O)c(C(=O)O)c2)c2ccc(O)c(C(=O)O)c2)C=CC1=O [Aurintricarboxylic acid]
- Z Score (168 h, 3 µM): 0.5709
- Z score (168 h, 3 µM): 0.571

SMILES: Cn1cnc([N+](=O)[O-])c1Sc1ncnc2nc[nH]c12 [Azathioprine]
- Z Score [8]: −7.913
- Z score [6]: −7.913
- Activity [7]: yes

SMILES: O=C(O)CCCCCCCC(=O)O [Azelaic acid]
- Z Score [1]: 0.1057
- Z score [6]: 0.106
- Activity [9]: no

SMILES: CCN1CCc2nc(N)oc2CC1.Cl.Cl [B-HT 933 dihydrochloride]
- Z Score: −1.28
- Z score [10]: −1.280
- Activity [11]: no

SMILES: COc1ccccc1N1CCN(CCN2C(=O)CC3(CCCC3)CC2=O)CC1 [BMY 7378 dihydrochloride]
- Z Score [5]: −0.6588
- Z score [10]: −0.659
- Activity [11]: no

SMILES: COc1ccccc1N1CCN(CCCCNC(=O)c2ccc3ccccc3c2)CC1 [BP 897]
- Z Score (168 h, 3 µM): −1.715
- Z score (168 h, 3 µM): −1.715
- Activity [11]: no

SMILES: OC(CN1CCN(c2cccc(Cl)c2)CC1)C(c1ccccc1)c1ccccc1 (stereo not shown) [BRL 15572]
- Z Score: 0.3117
- Z score [6]: 0.312
- Activity [4]: no

SMILES: C[C@H](Cc1ccc(OCC(=O)[O-])cc1)NC[C@H](O)c1cccc(Cl)c1.[Na+] [BRL 37344 sodium]
- Z Score: −1.725
- Z score [10]: −1.725
- Activity [11]: no

SMILES: Cl.O=C(Cc1ccc(Cl)c(Cl)c1)N1CCCCC1CN1CCCC1 (stereo not shown) [BRL 52537 hydrochloride]
- Z Score: −2.761
- Z score [6]: −2.761
- Activity [4]: yes

SMILES: CN1CCC(c2c[nH]c3ccc(O)cc23)CC1.O=C(O)/C=C\C(=O)O [BRL 54443 maleate]
- Z Score: 0.3378
- Z score [10]: 0.338
- Activity [11]: no

SMILES: Cl.c1ccc2sc(C3(N4CCCCC4)CCCCC3)cc2c1 [BTCP hydrochloride]
- Z Score: 0.8361
- Z score [6]: 0.836
- Activity [7]: no

SMILES: Cl.c1ccc2nc(C3=NCCN3)ccc2c1 [BU224 hydrochloride]
- Z Score: 0.4045
- Z score [10]: 0.404
- Activity [11]: no

SMILES: S=C=Nc1ccc2oc(C3=NCCN3)cc2c1 [BU99006]
- Z Score: 1.182
- Z score [6]: 1.182
- Activity [11]: no

SMILES: O=C(O)CCCCCCC1C(=O)NC(=O)N1CCC(O)C1CCCCC1 (stereo not shown) [BW 245C]
- Z Score: 1.036
- Z score [6]: 1.036
- Activity [9]: no

SMILES: C=CC[N+](C)(C)c1ccc(CCC(=O)CCc2ccc([N+](C)(C)CC=C)cc2)cc1.[Br-].[Br-] [BW 284c51]
- Z Score: −0.4017
- Z score [2]: −0.402
- Activity [3]: no

SMILES: CC(N)Cc1c[nH]c2ccc(OCc3cccs3)cc12 (stereo not shown) [BW 723C86]
- Z Score: 0.7247
- Z score [10]: 0.725
- Activity [11]: no

SMILES: CC(/C=C/c1cccc(Oc2ccc(F)cc2)c1)N(O)C(N)=O (stereo not shown) [BWB70C]
- Z Score: −0.8932
- Z score [10]: −0.893
- Activity [11]: no

SMILES: CC(C)(C)c1ccc(S(=O)(=O)/C=C/C#N)cc1 [Bay 11-7085]
- Z Score: 2.18
- Z score [10]: 2.180
- Activity [11]: no

SMILES: C[C@H]1C[C@H]2[C@@H]3CCC4=CC(=O)C=C[C@]4(C)[C@@]3(Cl)[C@@H](O)C[C@]2(C)[C@@]1(O)C(=O)CO [Beclomethasone]
- Z Score [1]: 0.267
- Z score [2]: 0.267
- Activity [3]: no

SMILES: c1ccc2cc(-c3ncc[nH]3)ccc2c1 [Benazoline oxalate]
- Z Score [5]: −0.3348
- Z score [10]: −0.335
- Activity [11]: no

SMILES: COc1cccc(OC)c1OCCNCC1CSc2ccccc2O1 (stereo not shown) [Benoxathian hydrochloride]
- Z Score (168 h, 3 µM): 0.2653
- Z score (168 h, 3 µM): 0.265
- Activity [11]: no

SMILES: NC(CO)C(=O)NNCc1ccc(O)c(O)c1O (stereo not shown) [Benserazide hydrochloride]
- Activity: no
- Z Score [1]: 0.007467
- Z score [10]: 0.007

SMILES: NC(=O)c1ccccc1 [Benzamide]
- Z score (168 h, 3 µM): 0.550
- Activity [3]: no

SMILES: Cl.N=C(N)c1ccccc1 [Benzamidine hydrochloride]
- Activity: no
- Z Score: 1.509
- Z score: 1.509

SMILES: NC(=NCc1ccccc1)NC(=O)c1nc(Cl)c(N)nc1N [Benzamil hydrochloride]
- Z Score [5]: −1.054
- Z score [10]: −1.054
- Activity [11]: no

SMILES: CN1[C@@H]2CC[C@H]1C[C@@H](OC(c1ccccc1)c1ccccc1)C2 [Benztropine mesylate]
- Z Score [8]: −3.749
- Z score [6]: −3.749
- Activity [4]: yes

SMILES: CC(C)C[C@H](NC(=O)[C@@H](O)[C@H](N)Cc1ccccc1)C(=O)O [Bestatin hydrochloride]
- Z Score [1]: 0.6432
- Z score [10]: 0.643
- Activity [11]: no

SMILES: C[N+](C)(C)CC=O [Betaine aldehyde chloride]
- Activity: no
- Z Score (168 h, 3 µM): −0.07007
- Z score (168 h, 3 µM): −0.070

SMILES: C[N+](C)(C)CC(=O)O [Betaine hydrochloride]
- Z Score [8]: −2.668
- Z score [6]: −2.668
- Activity [4]: yes

SMILES: C[C@H]1C[C@H]2[C@@H]3CCC4=CC(=O)C=C[C@]4(C)[C@@]3(F)[C@@H](O)C[C@]2(C)[C@@]1(O)C(=O)CO [Betamethasone]
- Z Score [1]: 0.8811
- Z score [10]: 0.881

SMILES: CC(C)NCC(O)COc1ccc(CCOCC2CC2)cc1 (stereo not shown) [Betaxolol hydrochloride]
- Z Score [1]: 0.9838
- Z score [10]: 0.984
- Activity [11]: no

SMILES: CC(C[N+](C)(C)C)OC(N)=O (stereo not shown) [Bethanechol chloride]
- Z Score [5]: −0.6493
- Z score [10]: −0.649
- Activity [11]: no

SMILES: NC(=O)c1ccccc1 [Beuzamide]
- Z Score: 0.5498

SMILES: CC[N+](C)(C)Cc1ccccc1Br [Bretylium tosylate]
- Activity: no
- Z Score [1]: −0.001709
- Z score [10]: −0.002

SMILES: C=CCc1ccccc1OCC(O)CNC1(C)CCC(C(C)(C)NC(=O)CBr)CC1 (stereo not shown) [Bromoacetyl alprenolol menthane]
- Z Score: 1.442
- Z score [10]: 1.442
- Activity [11]: no

SMILES: C[N+](C)(C)CCOC(=O)CBr.[Br-] [Bromoacetylcholine bromide]
- Z Score: −0.3547
- Z score [10]: −0.355
- Activity [11]: no
